The text below walks through data of patent US7414078B2, “Oral general anesthetics and metabolitically resistant anticonvulsants” (University of Virginia Patent Foundation, priority 2001, dated 2008).

Series [1] has as its system Isoflurane anesthesia (minimum alveolar concentration, MAC). The series can be described thus: General anesthesia test: reduction of isoflurane MAC after i.p. compound. It counts as in vivo, rats. As to conditions: for anesthetic activity: rat, in vivo; for MAC value of Isoflurane at 60 mg/kg of compound / Percent Reduction in Isoflurane: rats; for MAC value of Isoflurane at 60 mg/kg of compound: 60 mg/kg i.p. in peanut oil, 1.2% isoflurane generates 100% anesthesia; for Percent Reduction in Isoflurane: 60 mg/kg i.p., relative to 1.2% isoflurane. As for the experimental part:
The MAC value is the minimum alveolar concentration of anesthetic at 1 atm that produces immobility in 50% of the subjects.
200 mg of each compound are tested for general anesthesia activity Testing is performed on rats to determine the percent reduction in the use of isoflurane. Inhaled anesthetics still need to be utilized to rapidly adjust the level of anesthesia. Since no single anesthetic is capable of all four requirements for anesthesia, a combination is utilized. The rats were first anesthetized with isoflurane, intubated, ventilated and then a femoral line was inserted. After the rat had been stable for 15 minutes, the initial minimum alveolar concentration (MAC) value was determined. […] After 30 minutes the second MAC value was determined post administration. Finally, after one hour the third MAC value was determined. At each MAC determination, a sample of blood was taken to determine pH, pCO2, and pO2. The results of the compounds tested to date are compared to the lead compound 17.
(§1) A classical comparison of log P and MAC reduction was investigated. A graph representing the effects of log P on the biological activity is presented in graphic form (See FIG. 1). The general anesthetic activity of compounds 20-23 and 36-43 were compared to lead compound 17 as represented in the graph (FIG. 1) and in Table 1. The partition coefficient, P, is a measure of the way the compound distributes itself between octanol and water. […] Therefore, meta-substituted derivatives 20 will be the focus of future synthesize. Bulky substituents on the alcohol were also found to have low activity.

Series [2] concerns blood pressure / hemodynamics. The series can be described thus: Hemodynamic effects during isoflurane anesthesia. As to conditions: rats, 60 mg/kg i.p., isoflurane anesthesia. It counts as in vivo, rats. How it is done: 200 mg of each compound are tested for general anesthesia activity Testing is performed on rats to determine the percent reduction in the use of isoflurane. Inhaled anesthetics still need to be utilized to rapidly adjust the level of anesthesia. Since no single anesthetic is capable of all four requirements for anesthesia, a combination is utilized. The rats were first anesthetized with isoflurane, intubated, ventilated and then a femoral line was inserted. After the rat had been stable for 15 minutes, the initial minimum alveolar concentration (MAC) value was determined. Then, 60 mg/kg of drug was sonicated in 3 mL of peanut oil and injected (i.p.). After 30 minutes the second MAC value was determined post administration. Finally, after one hour the third MAC value was determined. At each MAC determination, a sample of blood was taken to determine pH, pCO2, and pO2. The results of the compounds tested to date are compared to the lead compound 17.

Series [3] relates to seizures induced by maximal electroshock (MES). The series can be described thus: Maximal electroshock (MES) test, mice i.p. (NIH). It is filed as in vivo. The conditions noted are these: for MES, animals protected/animals tested: mice i.p.; for MES, mice protected: phase I i.p. mice. As for the experimental part: (§2) 300 mg of each compound was synthesized and sent to the National institute of Health's Anticonvulsant Screening Project of the Antiepileptic Drug Discovery Program. NIH performs anticonvulsant testing (oral and intraperitoneal, i.p.) on both mice and rats in phase I trials. The grand mal model is conducted with a maximal electroshock (MES) test, where corneal electrode implants are primed with a drop of electrolyte solution and an electrical stimulus is delivered for 0.2 second. The model examines the compounds' ability to stop the spread of seizures. The petite mal model is conducted with a subcutaneous pentylenetetrazol seizure threshold (scMet) test. The animals are injected with a convulsant dose of pentylenetetrazol at the peak effect time of the compound. This model measures the compounds' threshold for seizures. A toxicity test (TOX) is performed where the animals walk on a spinning rod for varying lengths of time to check for the loss of righting reflex or other toxic effects.

For series [4], the system named is pentylenetetrazol-induced seizures (scMet). The series can be described thus: Subcutaneous pentylenetetrazol seizure threshold (scMet) test, mice i.p. (NIH). It counts as in vivo. The conditions noted are these: for SCMET, animals protected/animals tested: mice i.p. As for the experimental part: as §2
For series [5], the system named is loss of righting reflex or other toxic effects on spinning rod. The series can be described thus: Toxicity test (TOX), spinning rod, mice i.p. (NIH). It counts as in vivo. The conditions noted are these: for TOX, animals affected/animals tested: mice i.p. How it is done:
as §2

In series [6] the test system is seizures induced by maximal electroshock (MES). The series can be described thus: Maximal electroshock (MES) test, rat oral (NIH). It counts as in vivo, rats. As to conditions: 30 mg/kg; for MES, animals protected/animals tested: rat oral. How it is done:
as §2

Series [7] concerns loss of righting reflex or other toxic effects on spinning rod. The series can be described thus: Toxicity test (TOX), spinning rod, rat oral (NIH). It is filed as in vivo, rats. As to conditions: 30 mg/kg. As for the experimental part:
as §2

The test system of the next series is toxicity, lethal dose. The series can be described thus: Toxicity / lethal dose noted with general anesthetic activity comparison. It counts as in vivo. The conditions noted are these: for toxicity: same dosage = 300 mg/kg; for lethal dose: in vivo.
Source text: as §1

The mark [8] stands for this setting: 300 mg/kg, 0.5 hours, footnotes: loss of righting reflex (and one death for Cmp 20, 21).
[9] abbreviates: 300 mg/kg, 4.0 hours, footnote c: loss of righting reflex (Cmp 20, 21).

Marks after values point to notes of the source that are not given here.

Turning to `NC(=O)C(O)(c1ccc(Cl)cc1)C(F)(F)F` (racemic) [Compound 21], in series [1], the “anesthetic activity” value is “very active”. Moreover, the “MAC value of Isoflurane at 60 mg/kg of compound” value (“MAC value of Isoflurane” below) in series [1] is listed as 0.65%. Also, the “Percent Reduction in Isoflurane” value in series [1] is recorded as 46%. The “Hemodynamic Effects” value in series [2] is on record as “none”. Besides, the “MES, animals protected/animals tested” value in series [3] (30 mg/kg, 0.5 hours) is reported as 0/1; in series [3] (30 mg/kg, 4.0 hours), 0/1; in series [3] (100 mg/kg, 0.5 hours), 0/3; in series [3] (100 mg/kg, 4.0 hours), 1/3; in series [6] (0.25 hrs.) it was 1/4; in series [6] (0.5 hrs.), 1/4. Moreover, the “MES, animals protected/animals tested” value in series [6] (1.0 hrs.), in series [6] (2.0 hrs.) and in series [6] (4.0 hrs.) was 1/4 throughout. Moreover, the “SCMET, animals protected/animals tested” value in series [4] (30 mg/kg, 0.5 hours) is 0/1; in series [4] (30 mg/kg, 4.0 hours), 0/1; in series [4] (100 mg/kg, 0.5 hours), 4/4; in series [4] (100 mg/kg, 4.0 hours), 1/1; in series [4] (300 mg/kg, 0.5 hours), 0/0; in series [4] (300 mg/kg, 4.0 hours) it was 1/1. In addition, the “TOX, animals affected/animals tested” value in series [5] (30 mg/kg, 0.5 hours) is given as 0/4; in series [5] (30 mg/kg, 4.0 hours) it was 0/2; in series [5] (100 mg/kg, 0.5 hours), 6/8; in series [5] (100 mg/kg, 4.0 hours), 3/4; in series [5] (setting [8]) it was 4/4^b; in series [5] (setting [9]) it was 1/1^c. For the same molecule, the “TOX, animals affected/animals tested” value in series [7] (0.25 hrs.), in series [7] (0.5 hrs.), in series [7] (1.0 hrs.), in series [7] (2.0 hrs.) and in series [7] (4.0 hrs.) was 0/4 each time. In the series on toxicity, lethal dose, the “toxicity” value is recorded as “toxic at the same dosage”.

As for `NC(=O)C(O)(c1ccccc1)C(F)(F)Cl` (centres unmarked) [Compound 42], the “anesthetic activity” value in series [1] was “high activity”. Also, in the series with toxicity, lethal dose, the lethal dose is reported as 300 mg/kg and the “toxicity” value was “very toxic”.

Regarding `CN1C(=O)C(O)(C(F)(F)F)c2ccccc21` (centres unmarked) [Compound 23], the “MAC value of Isoflurane” value in series [1] came out at 0.95%. For the same molecule, the “Percent Reduction in Isoflurane” value in series [1] was determined as 20.8%. Moreover, the “Hemodynamic Effects” value in series [2] is recorded as “none”. The “MES, animals protected/animals tested” value is given as 0/1 in series [3] (30 mg/kg, 0.5 hours); 0/1 in series [3] (30 mg/kg, 4.0 hours); 3/3 in series [3] (100 mg/kg, 0.5 hours); 0/3 in series [3] (100 mg/kg, 4.0 hours); 1/1 in series [3] (300 mg/kg, 0.5 hours); 1/1 in series [3] (300 mg/kg, 4.0 hours). Also, the “MES, animals protected/animals tested” value was 2/4 in series [6] (0.25 hrs.); 1/4 in series [6] (0.5 hrs.); 2/4 in series [6] (1.0 hrs.); 2/4 in series [6] (2.0 hrs.); 2/4 in series [6] (4.0 hrs.). For the same molecule, the “SCMET, animals protected/animals tested” value is given as 1/5 in series [4] (30 mg/kg, 0.5 hours); 0/1 in series [4] (30 mg/kg, 4.0 hours); 0/1 in series [4] (100 mg/kg, 0.5 hours); 0/1 in series [4] (100 mg/kg, 4.0 hours); 1/1 in series [4] (300 mg/kg, 0.5 hours); 1/1 in series [4] (300 mg/kg, 4.0 hours). Further, the “TOX, animals affected/animals tested” value is on record as 0/4 in series [5] (30 mg/kg, 0.5 hours); 0/2 in series [5] (30 mg/kg, 4.0 hours); 1/8 in series [5] (100 mg/kg, 0.5 hours); 0/4 in series [5] (100 mg/kg, 4.0 hours); 4/4^c in series [5] (setting [8]); 1/2 in series [5] (setting [9]). The “TOX, animals affected/animals tested” value in series [7] (0.25 hrs.), in series [7] (0.5 hrs.), in series [7] (1.0 hrs.), in series [7] (2.0 hrs.) and in series [7] (4.0 hrs.) was 0/4 each time.

As for `O=C1Nc2ccccc2C1(O)C(F)(F)F` (centres unmarked) [Compound 22], in series [1], the “MAC value of Isoflurane” value came to 1.05% and the “Percent Reduction in Isoflurane” value was 12.5%. The “Hemodynamic Effects” value in series [2] is given as “none”.

Take `NC(=O)C(O)(c1cccc(F)c1)C(F)(F)F` (racemic) [Compound 20]: in series [1], the “anesthetic activity” value is reported as “high activity”. Moreover, the “MAC value of Isoflurane” value in series [1] is reported as 0.70%. Further, in series [1], the “Percent Reduction in Isoflurane” value worked out at 42%. Moreover, the “Hemodynamic Effects” value in series [2] is “lowers blood”. The “MES, animals protected/animals tested” value in series [3] (30 mg/kg, 0.5 hours) is given as 0/1^a; in series [3] (30 mg/kg, 4.0 hours), 0/1; in series [3] (100 mg/kg, 0.5 hours), 3/3; in series [3] (100 mg/kg, 4.0 hours), 3/3; in series [3] (300 mg/kg, 0.5 hours), 0/0; in series [3] (300 mg/kg, 4.0 hours), 1/1. The “SCMET, animals protected/animals tested” value in series [4] (30 mg/kg, 0.5 hours) was 2/5; in series [4] (30 mg/kg, 4.0 hours), 0/1; in series [4] (100 mg/kg, 0.5 hours) it was 1/1; in series [4] (100 mg/kg, 4.0 hours) it was 1/1. Also, the “TOX, animals affected/animals tested” value in series [5] (30 mg/kg, 0.5 hours) is 0/4; in series [5] (30 mg/kg, 4.0 hours) it was 0/2; in series [5] (100 mg/kg, 0.5 hours) it was 6/8; in series [5] (100 mg/kg, 4.0 hours), 0/4; in series [5] (setting [8]), 4/4^b; in series [5] (setting [9]), 1/1^c. Also, the lethal dose in the series with toxicity, lethal dose was 300 mg/kg. For the same molecule, the “toxicity” value with toxicity, lethal dose is listed as “very toxic”.

In the case of `NC(=O)C(O)(c1ccc(F)cc1)C(F)(F)F` (centres unmarked) [Compound 39, 3,3,3-Trifluoro-2-hydroxy-2-(4-fluoro-phenyl)-propionamide], the “animals with a 100% reduction in Isoflurane MAC” value in series [1] (300 mg/kg) is given as 3 out of 4. In addition, in series [1], the “anesthetic activity” value is “very active”. The “MES, mice protected” value in series [3] (100 mg/kg, duration of 0.5 hours) is 5 out of 5; in series [3] (100 mg/kg, duration of 1 hour), 2 out of 3. Further, the “activity as an anticonvulsant in scMET assay” value in series [4] (species and dose not stated) was “demonstrated activity”. Moreover, the “Neurotoxicity, mice unable to grasp rod” value in series [5] (mice, 100 mg/kg, duration of 0.5 hours) is “seven of eight”. Moreover, the “MES, rats protected” value in series [6] (phase I oral rat, duration of 2 hours) is reported as 4 out of 4. The “toxicity” value in the series on toxicity, lethal dose was “toxic at the same dosage”.
